From publication PMC5754413, “Mass balance, metabolic disposition, and pharmacokinetics of a single oral dose of regorafenib in healthy human subjects” (Cancer Chemotherapy and Pharmacology, 2017)
Where two headings read alike, the source gives them in different places.

Legend:
human feces = test: Incubation with human feces under anaerobic conditions; assay type: in vitro ADME; conditions: anaerobic conditions, ex vivo
Procedure: Under anaerobic conditions, a suspension of fresh human feces (about 0.5 g) in degassed water (final volume 5 mL) was treated with a solution of [^14C]-labelled metabolite M-2 or metabolite M-7 (1 mg/mL acetonitrile; final concentration: 10 μM). After incubation for 24 h at 37 °C, the incubation mixture was terminated by the addition of acetonitrile (2 mL). After centrifugation (5 min, 3000 rpm), the supernatant (25 μL) was directly subjected to HPLC with the respective off-line radioactivity detection. As negative controls, metabolites M-2 and M-7 were incubated in water for 24 h at 37 °C.

[1] = Pharmacokinetics of regorafenib in plasma (HPLC–MS/MS) after a single oral 120 mg dose in healthy male subjects; assay type: in vivo, human; conditions: for half-life: plasma
Procedure: Subjects were screened within the 28 days before scheduled drug administration and entered the clinical unit 1 day before drug administration. After an overnight fasting, subjects received a single oral 120 mg dose of regorafenib, containing approximately 100 μCi (3.7 MBq) [^14C]regorafenib, as a 6 mL solution in an aqueous PEG-based vehicle (Diluent Sol 30 mL oral, Bayer HealthCare AG) followed by 240 mL water. The associated radiation exposure fell within International Commission on Radiological Protection Guidelines for Category IIa studies (0.1–1 mSv).
(§1) Blood and plasma: Blood samples (18.7 mL per each time point) were collected into nonbeaded lithium-heparinized tubes immediately pre-dose and at the following post-dose times: 0.5, 1, 1.5, 2, 2.5, 3, 4, 6, 9, 12, 16, 20, 24, 36, 48, 72, 96, 120, 144, 192, 240, and 288 h. For each sample, 1 mL of whole blood was stored at 4 °C for subsequent LSC and the remainder was processed for plasma. Individual 150 μL plasma samples for each time point were treated with formic acid (20 μL) and acetonitrile (450 μL). The samples were homogenized using a MS2 Minishaker® (IKA® Labortechnik, Staufen im Breisgau, Germany). The precipitated proteins were removed by centrifugation (5 min, 13,000 rpm, Biofuge). After concentrating the supernatant to about 80 μL, methanol (15 μL) was added. The individual samples were analyzed by HPLC with off-line radioactivity detection for metabolite profiling.
Quantitative analysis of regorafenib in plasma was performed after protein precipitation using a fully validated HPLC–MS/MS assay. The analyses were performed in accordance with the 2001 FDA guidelines on bioanalytical validation. [^2H3,^15N]-regorafenib was used as internal standard (final concentration: 12.5 µg/L). The calibration range was from 2.00 µg/L to 2.00 mg/L. Quality control samples in the concentration range 5.00 µg/L to […] were determined with an accuracy of 98.1–103% and a precision of 1.55–10.0% (n = 6–8/concentration). All samples were stored at or below − 15 °C and analyzed within 14 days after sample receipt.
(§2) Pharmacokinetic outcome measures were generated by non-compartmental analysis of plasma concentration–time data using WinNonlin v4.1 (Pharsight Corporation) in conjunction with Kincalc v2.50 (Bayer AG). For individual subjects, primary outcome measures were maximum observed concentration (C max) and area under the concentration–time curve from time zero to infinity (AUC). […] The metabolite or regorafenib percentages were calculated by AUC(0–144)metabolite or regorafenib divided by AUC(0–144)radioactivity calculated from data obtained by HPLC–LSC analysis. Secondary outcomes were: time to C max (t max); apparent terminal elimination half-life (t ½); apparent volume of distribution during the terminal phase after extravascular administration (Vz/F); and total body clearance of drug calculated after extravascular administration (e.g., apparent oral clearance) (CL/F). AUC was estimated by the sum of partial areas: partial areas were calculated using the linear (if C i ≤ C i+1) or the logarithmic (if C i > C i+1) trapezoidal rules. The quality of the half-life calculation was assessed based on graphs showing the concentration–time profile. For reliable calculation of the half-life, at least three data points (concentration/time values) were used. The extrapolated portion of the AUC from the last measured data point C(t n) to infinity was calculated using the concentration C last,calc, which was calculated from the log-linear regression line used for half-life calculation rather than C(t n). In addition, appropriate pharmacokinetic parameters were derived from the total radioactivity-versus-time data in blood and plasma.

[2] = Metabolite profiling in plasma by HPLC–LSC; assay type: in vivo, human
Procedure: as §1, §2
Due to the limited amount of radiocarbon associated with many of the samples, analyses were conducted using HPLC with fraction collection followed by off-line LSC. Samples were analyzed on a 150 × 3 mm Prodigy® ODS-3 100A, 3 µm column (Phenomenex, Aschaffenburg, Germany) protected by 8 × 3 mm Nucleosil® 100-3 C18 HD guard columns (Macherey–Nagel, Düren, Germany). Metabolites were separated with a gradient of aqueous potassium dihydrogen phosphate (1 g/L, pH 2.0, mobile phase A) versus acetonitrile (mobile phase B) at a flow rate of 0.5 mL/min (gradient: 0% B at 0 min, linear to 50% B at 10 min, linear to 60% B at 25 min, linear to 80% B at 26 min, plateau at 80% B to 30 min). The radiochemical profile of [^14C]regorafenib-derived radioactivity was determined for all urine samples, plasma extracts, and fecal homogenate extracts. Here, HPLC fractionation into 96-well plates was followed by off-line LSC (Wallac 1450 MicroBeta liquid scintillation analyzer) after adding 150 μL of scintillation cocktail to each well (Ultima-Flo™ AP, PerkinElmer; sampling rate: 10 s/well) using the Wallac 1450 Microbeta™ Plusliquid detector. Reconstructed radiochemical profiles were compiled from the resulting data.

[3] = design: method as in PMID 22421192, PMID 22568966; conditions: steady state; cited from earlier work
UGT1A9 = tested on: UGT1A9; design: method as in PMID 24896071, PMID 27734608; conditions: in vitro data; cited from earlier work
[4] = male, human, regorafenib in plasma, LC–MS/MS, single oral 120 mg solution, N = 4, geometric mean (%CV)

CNC(=O)c1cc(Oc2ccc(NC(=O)Nc3ccc(Cl)c(C(F)(F)F)c3)c(F)c2)ccn1 [Regorafenib, 4-[4-({[4-chloro-3-(trifluoromethyl)phenyl]carbamoyl}amino)-3-fluorophenoxy]-N-methylpyridine-2-carboxamide]
Stability in feces / toward gut flora (human feces): stable | half-life ([1]; human, oral, 120 mg, except for subject 003, read-out: Half-lives for regorafenib, range between subjects): 39 to 48 h | half-life ([1]; human, oral, 120 mg, subject 003, read-out: Calculated t 1/2 for regorafenib (converted)): ~62 h | Vd/F ([1]; male, human, oral, 120 mg, regorafenib in plasma, geometric mean (%CV), N = 4, read-out: Vz/F): 216 L | Tmax ([1]; male, human, oral, 120 mg, regorafenib in plasma, median (range), N = 4): 1.25 h | half-life ([1]; male, human, oral, 120 mg, regorafenib in plasma, geometric mean (%CV), N = 4, read-out: t 1/2 (converted)): 48.6 h | AUC [1, 4]: 39000 ng·h/mL | Cmax [1, 4]: 1580 ng/mL | CL/F ([1]; regorafenib in plasma, geometric mean (%CV), N = 4): 3.08 (34.9) L/h | Percent of total AUC(0–144) of radioactivity in plasma ([2]; based on HPLC–LSC, mean): 57.4% | Mean total exposure, AUC(0–144 h) ([2]; plasma, HPLC–LSC): 46.89 mg-Eq·h/L | Secondary maximum of plasma concentration–time profile [3]: 6 to 8 h | Tertiary maximum of plasma concentration–time profile [3]: ~24 h | Enzyme catalyzing conjugation with glucuronic acid (UGT1A9): by UGT1A9
